Data on two compounds can be found in patent publication US12281304B2, “Compositions and methods for treating and preventing muscular disorders and dystrophies, steroid side effects, and inflammation” (Children's National Medical Center, priority 2018, dated 2025).

Data set [1] has as its system miRNAs in diaphragm muscle of mdx mice. In words: qRT-PCR of individual miRNAs in diaphragm, validation set (4-month treatment, treadmill-run mdx mice). The data set is classed as in vivo, mouse. The note with it: 6 months of age, prednisolone 5 mg/kg, vamorolone 45 mg/kg; for expression of the other seven inflammatory miRNAs: P≤0.05. The source says:
Archival muscle samples (diaphragm) from two separate preclinical studies were obtained, with each trial showing a significant benefit from both prednisolone and vamorolone drug treatments (23). Prednisolone was used because it is the active form of prednisone, the current DMD standard of care. The first, “discovery set” of diaphragm muscles was from a prophylactic trial design where 2-week old (postnatal day 15) mdx or wild type control mice received oral dosing for 6 weeks with vehicle (cherry syrup), prednisolone (5 mg/kg), or vamorolone (15 mg/kg) as previously reported (23). The second, “validation set” of diaphragm muscles was from an extended trial in older mice where mdx or wild type mice were subjected to treadmill running to unmask mild phenotypes. Mice in this validation set were treated with either vehicle, prednisolone (5 mg/kg) or vamorolone (45 mg/kg) for four months beginning at two months of age (23). At the endpoint of each trial, diaphragm muscles were harvested and frozen in liquid nitrogen-cooled isopentane.
Specific miRNAs were quantified in the validation set of samples using individual TaqMan assays specific for each miRNA (ThermoFisher; Carlsbad, Calif.) according to the manufacturer's protocol. Assay IDs used include 000468, 001346, 002455, 001280, 000528, 002352, 000464, 002509, and 002248. Total RNA was converted to cDNA using multiplexed RT primers and High Capacity cDNA Reverse Transcription Kit (ThermoFisher; Carlsbad, Calif.). The cDNA was pre-amplified using TaqMan PreAmp Master Mix (ThermoFisher; Carlsbad, Calif.). The miRNAs were then quantified using individual TaqMan assays on an ABI QuantStudio 7 real time PCR machine (Applied Biosystems; Foster City, Calif.).
In the discovery set experiments, levels of each miRNA were quantified in TaqMan low-density arrays using ThermoFisher Cloud software with the Relative Quantification Application (ThermoFisher; Carlsbad, Calif.) tool. Data was analyzed by ANOVA with post-hoc comparison of each group to the mdx vehicle-treated group. […] A P-value of P≤0.05 was set as the significance threshold, without adjustment for multiple comparisons. To reduce false-positive discovery in this setting, an evidence-based approach was used to identify efficacy associated miRNAs where 1) results from the multiple groups were cross-referenced, and 2) all candidate miRNAs identified in this discovery set were then assayed in a separate validation set of mice. For the validation set experiments, levels of each individual miRNA were assayed in samples from a second, independent preclinical trial in adult mdx mice. Data from individual TaqMan Assays was quantified using QuantStudio Real-Time PCR version 1.3 software (Applied Biosystems; Foster City, Calif.). […]

The test system of the next data set is mdx mice. As to conditions: same mdx mice as discovery set; prednisolone 5 mg/kg, vamorolone 15 mg/kg; cited from earlier work.
The conditions of data set [2]: preclinical mdx mouse and human Phase I trials; cited from earlier work.
The target in data set [3] is T1, glucocorticoid receptor (GR) (Homo sapiens, UniProt P04150).
T1 sequence (P04150 1-777): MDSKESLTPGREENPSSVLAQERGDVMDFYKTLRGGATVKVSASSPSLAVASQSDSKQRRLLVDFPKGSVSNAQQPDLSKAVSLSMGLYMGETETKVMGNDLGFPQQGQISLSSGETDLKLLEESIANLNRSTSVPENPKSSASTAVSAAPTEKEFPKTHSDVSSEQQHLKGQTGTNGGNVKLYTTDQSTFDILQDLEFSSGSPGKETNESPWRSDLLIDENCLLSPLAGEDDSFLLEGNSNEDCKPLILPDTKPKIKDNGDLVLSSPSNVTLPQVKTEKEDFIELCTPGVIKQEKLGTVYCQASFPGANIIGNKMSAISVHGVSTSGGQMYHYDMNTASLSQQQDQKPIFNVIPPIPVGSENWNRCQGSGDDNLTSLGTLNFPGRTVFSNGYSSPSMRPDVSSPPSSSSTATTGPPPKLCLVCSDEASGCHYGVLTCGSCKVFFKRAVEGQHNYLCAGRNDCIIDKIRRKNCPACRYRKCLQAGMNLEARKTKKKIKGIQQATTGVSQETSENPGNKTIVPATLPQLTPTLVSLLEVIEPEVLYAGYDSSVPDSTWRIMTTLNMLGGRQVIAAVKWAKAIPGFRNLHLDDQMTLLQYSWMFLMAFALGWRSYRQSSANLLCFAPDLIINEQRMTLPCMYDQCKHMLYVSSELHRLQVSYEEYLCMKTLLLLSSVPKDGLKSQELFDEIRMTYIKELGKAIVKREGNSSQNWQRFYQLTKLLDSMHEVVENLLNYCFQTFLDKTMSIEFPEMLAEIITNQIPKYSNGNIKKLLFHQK
As to conditions: cited from earlier work.

On to `C[C@]12C=CC(=O)C=C1CC[C@@H]1[C@@H]2[C@@H](O)C[C@@]2(C)[C@H]1CC[C@]2(O)C(=O)CO` [prednisolone], for which, in data set [1], the “response of miR-301a to drug treatment” value is listed as “did not respond to drug treatment” and the “expression of the other seven inflammatory miRNAs” value is “significant decrease towards healthy wild type levels”. Further, in the data set with mdx mice, the “grip strength, muscle pathology and diaphragm inflammation” value is “successfully improved grip strength, muscle pathology, and diaphragm inflammation”; the “steroid side effects (stunted growth, immunosuppression, bone loss)” value was “caused traditional steroid side effects of stunted growth, immunosuppression, and bone loss”.
As for `C[C@@H]1C[C@H]2[C@@H]3CCC4=CC(=O)C=C[C@]4(C)C3=CC[C@]2(C)[C@@]1(O)C(=O)CO` [vamorolone], in data set [2], the “steroidal side effects in comparison to prednisone” value is “avoids or has substantially reduced steroidal side effects in comparison to prednisone”. Besides, in data set [1], the “response of miR-301a to drug treatment” value is on record as “did not respond to drug treatment” and the “expression of the other seven inflammatory miRNAs” value is recorded as “significant decrease towards healthy wild type levels”. In the data set on mdx mice, the “grip strength, muscle pathology and diaphragm inflammation” value was “successfully improved grip strength, muscle pathology, and diaphragm inflammation”; the “steroid side effects (stunted growth, immunosuppression, bone loss)” value is “successfully avoided these side effects”. Further, the “binding to the GR” value in data set [3] is given as “high affinity”.
